Measurements from patent publication US20210269434A1, “TRICYCLIC COMPOUNDS AS INHIBITORS OF KRAS” (Incyte Corporation, priority 2020, published 2021).
Blank lines part the entries; values can stand above or below the molecule they belong to.

Experiments:
KRAS G12C = KRAS G12C (Homo sapiens, UniProt P01116, G12C); assay: GDP-GTP exchange assay (KRAS_G12C exchange); assay type: biochemical; settings: bodipy-GDP loaded KRAS G12C 2.5 nM, SOS1 150 nM, GppNHp; 2 hours pre-incubation, 2 hours reaction; read-out: G12C_exchange
Procedure, shortened: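 Fluorescence exchange of bodipy-GDP for GppNHp, SOS1-driven, read at 485/520 nm; IC50 from four-parameter variable-slope fit. Both mutants used 2.5 nM final labelled protein and a 2 h compound pre-incubation. G12C reaction had 500 uM GppNHp and 150 nM SOS1 for 2 h; G12D ran 4 h.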

[1] = tested on: MIA PaCa-2 (KRAS G12C) cells; assay: Cellular pERK HTRF assay (KRAS_G12C pERK); assay type: cell-based, human; settings: Homo sapiens, MIA PaCa-2, 4 hours incubation, read-out: G12C_pERK
Procedure, shortened: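 Phospho-ERK1/2 HTRF readout (665 and 620 nm) in lysed MIA PaCa-2 cells, antibodies incubated overnight at room temperature. Cells seeded the day before and treated with G12C compounds for 4 h at 37 °C; IC50 fitted to percent inhibition against log inhibitor concentration.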

KRAS G12C, sequence (P01116 1-188 isoform P01116-2 G12C): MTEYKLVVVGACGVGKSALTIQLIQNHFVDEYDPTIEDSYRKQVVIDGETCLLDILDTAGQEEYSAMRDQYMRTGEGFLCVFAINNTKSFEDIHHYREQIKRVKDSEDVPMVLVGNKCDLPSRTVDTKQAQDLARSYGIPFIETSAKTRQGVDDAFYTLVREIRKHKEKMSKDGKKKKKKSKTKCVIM

SMILES: C[C@@H](CN(C)C)Oc1nc2c(F)c(-c3ccc(F)cc3)c(Cl)cc2c2c1nnn2[C@H]1CCN(C(=O)/C=C/CF)[C@H](CC#N)C1 [Example 130, 2-((2S,4S)-4-(8-chloro-4-(((S)-1-(dimethylamino)propan-2-yl)oxy)-6-fluoro-7-(4-fluorophenyl)-1H-[1,2,3]triazolo[4,5-c]quinolin-1-yl)-1-((E)-4-fluorobut-2-enoyl)piperidin-2-yl)acetonitrile]
IC50 (KRAS G12C): ≤ 100 nM
IC50 [1]: ≤ 100 nM

SMILES: C=CC(=O)N1CC[C@H](n2nnc3c(OC[C@@H]4CCCN4C)nc4c(F)c(-c5ccc(F)cc5)c(Cl)cc4c32)C[C@H]1CC#N [Example 131, 2-((2S,4S)-1-acryloyl-4-(8-chloro-6-fluoro-7-(4-fluorophenyl)-4-(((S)-1-methylpyrrolidin-2-yl)methoxy)-1H-[1,2,3]triazolo[4,5-c]quinolin-1-yl)piperidin-2-yl)acetonitrile]
IC50 (KRAS G12C): ≤ 100 nM
IC50 [1]: ≤ 100 nM

SMILES: C=CC(=O)N1CC[C@H](n2nnc3c(O[C@@H](C)CN(C)C)nc4c(F)c(-c5ccc(F)cc5)c(C)cc4c32)C[C@H]1CC#N [Example 132, 2-((2S,4S)-1-acryloyl-4-(4-(((S)-1-(dimethylamino)propan-2-yl)oxy)-6-fluoro-7-(4-fluorophenyl)-8-methyl-1H-[1,2,3]triazolo[4,5-c]quinolin-1-yl)piperidin-2-yl)acetonitrile]
IC50 (KRAS G12C): ≤ 100 nM
IC50 [1]: ≤ 100 nM

SMILES: CC#CC(=O)N1CC[C@H](n2nnc3c(O[C@@H](C)CN(C)C)nc4c(F)c(-c5ccc(F)cc5)c(C)cc4c32)C[C@H]1CC#N [Example 133, 2-((2S,4S)-1-(but-2-ynoyl)-4-(4-(((S)-1-(dimethylamino)propan-2-yl)oxy)-6-fluoro-7-(4-fluorophenyl)-8-methyl-1H-[1,2,3]triazolo[4,5-c]quinolin-1-yl)piperidin-2-yl)acetonitrile]
IC50 (KRAS G12C): ≤ 100 nM
IC50 [1]: ≤ 100 nM

SMILES: Cc1cc2c(nc(O[C@@H](C)CN(C)C)c3nnn([C@H]4CCN(C(=O)/C=C/CF)[C@H](CC#N)C4)c32)c(F)c1-c1ccc(F)cc1 [Example 134, 2-((2S,4S)-4-(4-(((S)-1-(dimethylamino)propan-2-yl)oxy)-6-fluoro-7-(4-fluorophenyl)-8-methyl-1H-[1,2,3]triazolo[4,5-c]quinolin-1-yl)-1-((E)-4-fluorobut-2-enoyl)piperidin-2-yl)acetonitrile]
IC50 (KRAS G12C): ≤ 100 nM
IC50 [1]: ≤ 100 nM

SMILES: C=CC(=O)N1CC[C@H](n2nnc3c(OC[C@@H]4CCCN4C)nc4c(F)c(-c5ccc(F)cc5)c(C)cc4c32)C[C@H]1CC#N [Example 135, 2-((2S,4S)-1-acryloyl-4-(6-fluoro-7-(4-fluorophenyl)-8-methyl-4-(((S)-1-methylpyrrolidin-2-yl)methoxy)-1H-[1,2,3]triazolo[4,5-c]quinolin-1-yl)piperidin-2-yl)acetonitrile]
IC50 (KRAS G12C): ≤ 100 nM
IC50 [1]: ≤ 100 nM

SMILES: Cc1cc2c(nc(OC[C@@H]3CCCN3C)c3nnn([C@H]4CCN(C(=O)/C=C/CF)[C@H](CC#N)C4)c32)c(F)c1-c1ccc(F)cc1 [Example 136, 2-((2S,4S)-4-(6-fluoro-7-(4-fluorophenyl)-8-methyl-4-(((S)-1-methylpyrrolidin-2-yl)methoxy)-1H-[1,2,3]triazolo[4,5-c]quinolin-1-yl)-1-((E)-4-fluorobut-2-enoyl)piperidin-2-yl)acetonitrile]
IC50 (KRAS G12C): ≤ 100 nM
IC50 [1]: ≤ 100 nM

SMILES: C=CC(=O)N1CC[C@H](n2nnc3c(OC[C@@H]4CCCN4C)nc4c(F)c(-c5cccc(C)c5C)c(C)cc4c32)C[C@H]1CC#N [Example 137, 2-((2S,4S)-1-acryloyl-4-(7-(2,3-dimethylphenyl)-6-fluoro-8-methyl-4-(((S)-1-methylpyrrolidin-2-yl)methoxy)-1H-[1,2,3]triazolo[4,5-c]quinolin-1-yl)piperidin-2-yl)acetonitrile]
IC50 (KRAS G12C): ≤ 100 nM
IC50 [1]: ≤ 100 nM

SMILES: Cc1cccc(-c2c(C)cc3c(nc(OC[C@@H]4CCCN4C)c4nnn([C@H]5CCN(C(=O)/C=C/CF)[C@H](CC#N)C5)c43)c2F)c1C [Example 138, 2-((2S,4S)-4-(7-(2,3-dimethylphenyl)-6-fluoro-8-methyl-4-(((S)-1-methylpyrrolidin-2-yl)methoxy)-1H-[1,2,3]triazolo[4,5-c]quinolin-1-yl)-1-((E)-4-fluorobut-2-enoyl)piperidin-2-yl)acetonitrile]
IC50 (KRAS G12C): ≤ 100 nM
IC50 [1]: ≤ 100 nM

SMILES: CC#CC(=O)N1CC[C@H](n2nnc3c(OC[C@@H]4CCCN4C)nc4c(F)c(-c5cccc(C)c5C)c(C)cc4c32)C[C@H]1CC#N [Example 139, 2-((2S,4S)-1-(but-2-ynoyl)-4-(7-(2,3-dimethylphenyl)-6-fluoro-8-methyl-4-(((S)-1-methylpyrrolidin-2-yl)methoxy)-1H-[1,2,3]triazolo[4,5-c]quinolin-1-yl)piperidin-2-yl)acetonitrile]
IC50 (KRAS G12C): ≤ 100 nM
IC50 [1]: ≤ 100 nM

The remaining lines, values ahead:

IC50 (KRAS G12C): ≤ 100 nM
IC50 [1]: ≤ 100 nM
SMILES: C=CC(=O)N1CC[C@H](n2cnc3c(N4CC(C)(N(C)C)C4)nc4c(F)c(-c5ccc(F)cc5)c(Cl)cc4c32)C[C@H]1CC#N [Example 120, 2-((2S,4S)-1-acryloyl-4-(8-chloro-4-(3-(dimethylamino)-3-methylazetidin-1-yl)-6-fluoro-7-(4-fluorophenyl)-1H-imidazo[4,5-c]quinolin-1-yl)piperidin-2-yl)acetonitrile]

IC50 (KRAS G12C): ≤ 100 nM
IC50 [1]: ≤ 100 nM
SMILES: C=CC(=O)N1CC[C@H](n2cnc3c(N4CC(C)(N(C)C)C4)nc4c(F)c(-c5ccc(F)cc5)c(C)cc4c32)C[C@H]1CC#N [Example 121, 2-((2S,4S)-1-acryloyl-4-(4-(3-(dimethylamino)-3-methylazetidin-1-yl)-6-fluoro-7-(4-fluorophenyl)-8-methyl-1H-imidazo[4,5-c]quinolin-1-yl)piperidin-2-yl)acetonitrile]

IC50 (KRAS G12C): ≤ 100 nM
IC50 [1]: ≤ 100 nM
SMILES: C=CC(=O)N1CC[C@H](n2cnc3c(O[C@@H](C)CN(C)C)nc4c(F)c(-c5ccc(F)cc5)c(Cl)cc4c32)C[C@H]1CC#N [Example 122, 2-((2S,4S)-1-acryloyl-4-(8-chloro-4-(((S)-1-(dimethyl-amino)propan-2-yl)oxy)-6-fluoro-7-(4-fluorophenyl)-1H-imidazo[4,5-c]quinolin-1-yl)piperidin-2-yl)acetonitrile]

IC50 (KRAS G12C): ≤ 100 nM
IC50 [1]: ≤ 100 nM
SMILES: C=CC(=O)N1CC[C@H](n2cnc3c(-n4ccnc4C)nc4c(F)c(-c5ccc(F)cc5)c(Cl)cc4c32)C[C@H]1CC#N [Example 123, 2-((2S,4S)-1-acryloyl-4-(8-chloro-6-fluoro-7-(4-fluorophenyl)-4-(2-methyl-1H-imidazol-1-yl)-1H-imidazo[4,5-c]quinolin-1-yl)piperidin-2-yl)acetonitrile]

IC50 (KRAS G12C): ≤ 100 nM
IC50 [1]: ≤ 100 nM
SMILES: Cc1nccn1-c1nc2c(F)c(-c3ccc(F)cc3)c(Cl)cc2c2c1ncn2[C@H]1CCN(C(=O)/C=C/CN(C)C)[C@H](CC#N)C1 [Example 124, 2-((2S,4S)-4-(8-chloro-6-fluoro-7-(4-fluorophenyl)-4-(2-methyl-1H-imidazol-1-yl)-1H-imidazo[4,5-c]quinolin-1-yl)-1-((E)-4-(dimethylamino)-but-2-enoyl)piperidin-2-yl)acetonitrile]

IC50 (KRAS G12C): ≤ 100 nM
IC50 [1]: ≤ 100 nM
SMILES: Cc1nccn1-c1nc2c(F)c(-c3ccc(F)cc3)c(Cl)cc2c2c1ncn2[C@H]1CCN(C(=O)/C=C/CF)[C@H](CC#N)C1 [Example 125, 2-((2S,4S)-4-(8-chloro-6-fluoro-7-(4-fluorophenyl)-4-(2-methyl-1H-imidazol-1-yl)-1H-imidazo[4,5-c]quinolin-1-yl)-1-((E)-4-fluorobut-2-enoyl)piperidin-2-yl)acetonitrile]

IC50 (KRAS G12C): ≤ 100 nM
IC50 [1]: ≤ 100 nM
SMILES: C=CC(=O)N1CC[C@H](n2nnc3c(N4CC(C)(N(C)C)C4)nc4c(F)c(-c5ccc(F)cc5)c(Cl)cc4c32)C[C@H]1CC#N [Example 126, 2-((2S,4S)-1-acryloyl-4-(8-chloro-4-(3-(dimethylamino)-3-methylazetidin-1-yl)-6-fluoro-7-(4-fluorophenyl)-1H-[1,2,3]triazolo[4,5-c]quinolin-1-yl)piperidin-2-yl)acetonitrile]

IC50 (KRAS G12C): ≤ 100 nM
IC50 [1]: ≤ 100 nM
SMILES: C=CC(=O)N1CC[C@H](n2nnc3c(N4CC(C)(N(C)C)C4)nc4c(F)c(-c5ccc(F)cc5)c(C)cc4c32)C[C@H]1CC#N [Example 127, 2-((2S,4S)-1-acryloyl-4-(4-(3-(dimethylamino)-3-methylazetidin-1-yl)-6-fluoro-7-(4-fluorophenyl)-8-methyl-1H-[1,2,3]triazolo[4,5-c]quinolin-1-yl)piperidin-2-yl)acetonitrile]

IC50 (KRAS G12C): ≤ 100 nM
IC50 [1]: ≤ 100 nM
SMILES: C=CC(=O)N1CC[C@H](n2nnc3c(O[C@@H](C)CN(C)C)nc4c(F)c(-c5ccc(F)cc5)c(Cl)cc4c32)C[C@H]1CC#N [Example 128, 2-((2S,4S)-1-acryloyl-4-(8-chloro-4-(((S)-1-(dimethylamino)propan-2-yl)oxy)-6-fluoro-7-(4-fluorophenyl)-1H-[1,2,3]triazolo[4,5-c]quinolin-1-yl)piperidin-2-yl)acetonitrile]

IC50 (KRAS G12C): ≤ 100 nM
IC50 [1]: ≤ 100 nM
SMILES: CC#CC(=O)N1CC[C@H](n2nnc3c(O[C@@H](C)CN(C)C)nc4c(F)c(-c5ccc(F)cc5)c(Cl)cc4c32)C[C@H]1CC#N [Example 129, 2-((2S,4S)-1-(but-2-ynoyl)-4-(8-chloro-4-(((S)-1-(dimethylamino)propan-2-yl)oxy)-6-fluoro-7-(4-fluorophenyl)-1H-[1,2,3]triazolo[4,5-c]quinolin-1-yl)piperidin-2-yl)acetonitrile]
